Common to all, as to test: NCI 60 cell line single dose screen (SRB)
What all share (format): cell-based

One assay relates to SNB-75. The note with it: Homo sapiens; SNB-75 (CNS cancer), single dose 10^−5 M, 48 h; read-out: Growth inhibition percentage. As to the method:
(§1) Anticancer activity screening of the newly synthesised compounds was measured in vitro utilising 60 different human tumour cell lines provided by US National Cancer Institute according to previously reported standard procedure[27–29] as follows: Cells are inoculated into 96-well microtitre plates in 100 ml. After cell inoculation, the microtitre plates are incubated at 37 °C, 5% CO2, 95% air and 100% relative humidity for 24 h prior to addition of experimental compounds. After 24 h, two plates of each cell line are fixed in situ with TCA, to represent a measurement of the cell population for each cell line at the time of drug addition (Tz). Experimental compounds are solubilised in dimethyl sulphoxide at 400-fold the desired final maximum test concentration and stored frozen prior to use. At the time of compound addition, an aliquot of frozen concentrate is thawed and diluted to twice the desired final maximum test concentration with complete medium containing […] gentamicin. Aliquots of […] of the compounds dilutions are added to the appropriate microtitre wells already containing 100 ml of medium, resulting in the required final compound concentration. Following compound addition, the plates are incubated for an additional 48 h at 37 °C, 5% CO2, 95% air, and 100% relative humidity. For adherent cells, the assay is terminated by the addition of cold trichloroacetic acid (TCA). Cells are fixed in situ by the gentle addition of 50 ml of cold 50% (w/v) TCA (final concentration, 10% TCA) and incubated for 60 min at 4 °C. The supernatant is discarded, and the plates are washed five times with tap water and air-dried. Sulphorhodamine B (SRB) solution (100 ml) at 0.4% (w/v) in 1% acetic acid is added to each well, and plates are incubated for 10 min at room temperature. After staining, unbound dye is removed by washing five times with 1% acetic acid and the plates are air-dried. Bound stain is subsequently solubilised with 10 mM trizma base, and the absorbance is read on an automated plate reader at a wavelength of 515 nm. For suspension cells, the methodology is the same except that the assay is terminated by fixing settled cells at the bottom of the wells by gently adding 50 ml of 80% TCA (final concentration, 16% TCA). Using the absorbance measurements [time zero, (Tz), control growth, (C), and test growth in the presence of compound (Ti)], the percentage growth is calculated for each compound. Percentage growth inhibition is calculated as: [(Ti – Tz)/(C – Tz)] x 100 for concentrations for which Ti >/=Tz. [(Ti – Tz)/Tz] x 100 for concentrations for which Ti < Tz.

The next assay has as its system RPMI-8226. The note with it: Homo sapiens; RPMI-8226 (leukemia), single dose 10^−5 M, 48 h; read-out: Growth inhibition percentage. The procedure:
as §1

For the next assay, the system named is MCF7. To be noted: Homo sapiens; MCF7 (breast cancer), single dose 10^−5 M, 48 h; read-out: Growth inhibition percentage. As to the method: as §1
In the next assay the test system is MALME-3M. The note with it: Homo sapiens; MALME-3M (melanoma), single dose 10^−5 M, 48 h; read-out: Growth inhibition percentage. As to the method: as §1
For another assay, the system named is OVCAR-3. To be noted: Homo sapiens; OVCAR-3 (ovarian cancer), single dose 10^−5 M, 48 h; read-out: Growth inhibition percentage. The procedure:
as §1

A further assay has as its system NCI-H522. To be noted: Homo sapiens; NCI-H522 (non-small cell lung cancer), single dose 10^−5 M, 48 h; read-out: Growth inhibition percentage. As to the method: as §1
The next assay concerns MDA-MB-231/ATCC. To be noted: Homo sapiens; MDA-MB-231/ATCC (breast cancer), single dose 10^−5 M, 48 h; read-out: Growth inhibition percentage. The procedure: as §1
In the next assay the test system is SK-OV-3. To be noted: Homo sapiens; SK-OV-3 (ovarian cancer), single dose 10^−5 M, 48 h; read-out: Growth inhibition percentage. The procedure: as §1
In another assay the test system is M14. To be noted: Homo sapiens; M14 (melanoma), single dose 10^−5 M, 48 h; read-out: Growth inhibition percentage. The procedure:
as §1

The next assay relates to SK-MEL-28. To be noted: Homo sapiens; SK-MEL-28 (melanoma), single dose 10^−5 M, 48 h; read-out: Growth inhibition percentage. The procedure:
as §1

The subject of the next assay is OVCAR-8. To be noted: Homo sapiens; OVCAR-8 (ovarian cancer), single dose 10^−5 M, 48 h; read-out: Growth inhibition percentage. The procedure:
as §1

In a further assay the test system is NCI-H226. The note with it: Homo sapiens; NCI-H226 (non-small cell lung cancer), single dose 10^−5 M, 48 h; read-out: Growth inhibition percentage. The procedure: as §1
The subject of another assay is TK-10. The note with it: Homo sapiens; TK-10 (renal cancer), single dose 10^−5 M, 48 h; read-out: Growth inhibition percentage. The procedure:
as §1

A further assay has as its system MOLT-4. To be noted: Homo sapiens; MOLT-4 (leukemia), single dose 10^−5 M, 48 h; read-out: Growth inhibition percentage. As to the method:
as §1

The next assay concerns A549/ATCC. The note with it: Homo sapiens; A549/ATCC (non-small cell lung cancer), single dose 10^−5 M, 48 h; read-out: Growth inhibition percentage. As to the method:
as §1

For another assay, the system named is EKVX. The note with it: Homo sapiens; EKVX (non-small cell lung cancer), single dose 10^−5 M, 48 h; read-out: Growth inhibition percentage. The procedure: as §1
For the next assay, the system named is 786-0. The note with it: Homo sapiens; 786-0 (renal cancer), single dose 10^−5 M, 48 h; read-out: Growth inhibition percentage. The procedure:
as §1

The next assay concerns U251. To be noted: Homo sapiens, U-251; U251 (CNS cancer), single dose 10^−5 M, 48 h; read-out: Growth inhibition percentage. As to the method: as §1
The subject of another assay is SF-593. To be noted: Homo sapiens, SF-593 (CNS cancer), single dose 10^−5 M, 48 h, read-out: Growth inhibition percentage. The procedure:
as §1

For a further assay, the system named is MDA-MB-435. The note with it: Homo sapiens; MDA-MB-435 (melanoma), single dose 10^−5 M, 48 h; read-out: Growth inhibition percentage. As to the method:
as §1

For the next assay, the system named is HS 578T. To be noted: Homo sapiens; HS 578T (breast cancer), single dose 10^−5 M, 48 h; read-out: Growth inhibition percentage. The procedure:
as §1

This note sets out measurements from publication PMC6352943, “Novel pyrazolo[3,4-d]pyrimidines: design, synthesis, anticancer activity, dual EGFR/ErbB2 receptor tyrosine kinases inhibitory activity, effects on cell cycle profile and caspase-3-mediated apoptosis” (Journal of Enzyme Inhibition and Medicinal Chemistry, 2019).

In general, inhibition refers to the drop in the measured response relative to a control, in per cent.

With `COc1cc(C=NNc2ncnc3c2c(C)nn3-c2ccc(F)cc2)ccc1O` [Compound 10b, 1–(4-Fluorophenyl)-4–(2-(4-hydroxy-3-methoxybenzylidene)-hydrazinyl)-3-methyl-1H-pyrazolo[3,4-d]pyrimidine], the inhibition at 10 µM is 17.5% with SNB-75; 7.52% with RPMI-8226; 14.7% in the assay with MCF7; -12.4% with MALME-3M; 24.2% in the assay with OVCAR-3; 27.1% in the assay on NCI-H522. The inhibition at 10 µM is 15.6% in the assay with MDA-MB-231/ATCC; 0.81% with SK-OV-3; -2.1% in the assay on M14; -7.04% in the assay on SK-MEL-28; 3.64% with OVCAR-8; -2.3% in the assay with NCI-H226. Moreover, the inhibition at 10 µM was determined as 11.3% in the assay with TK-10; 38.3% in the assay on MOLT-4; 2.36% in the assay with A549/ATCC; 12.4% in the assay on EKVX; 11.3% with 786-0; 5.64% with U251. Moreover, the inhibition at 10 µM with SF-593 worked out at 3.85%; in the assay on MDA-MB-435, 4.56%; with HS 578T, 0.89%.
In the case of `COc1cc(C=NNc2ncnc3c2c(C)nn3-c2ccc(F)cc2)cc(OC)c1OC` [Compound 10c, 1–(4-Fluorophenyl)-3-methyl-4–(2-(3,4,5-trimethoxybenzylidene)-hydrazinyl)-1H-pyrazolo[3,4-d]pyrimidine], the inhibition at 10 µM in the assay with SNB-75 was 19.5%; in the assay with RPMI-8226, 1.29%; in the assay with MCF7, 1.96%; in the assay with MALME-3M it was 12.6%; in the assay on OVCAR-3, -0.3%; with NCI-H522, 7.26%. Besides, the inhibition at 10 µM in the assay on MDA-MB-231/ATCC was 16.5%; in the assay on SK-OV-3, 7.06%; in the assay on M14, 2.73%; in the assay with SK-MEL-28, 1.3%; in the assay on OVCAR-8 it was -1.23%; in the assay with NCI-H226, 5.82%. Moreover, the inhibition at 10 µM in the assay on TK-10 was -36.3%; in the assay on MOLT-4, 7.03%; in the assay with A549/ATCC, -0.67%; in the assay with EKVX it was 10%; with 786-0 it was 1.85%; with U251 it was 0.92%. The inhibition at 10 µM in the assay on SF-593 was 13.2%; in the assay with MDA-MB-435 it was -2.02%; with HS 578T, 13.9%.
On to `Cc1nn(-c2ccc(F)cc2)c2ncnc(N3CCN(c4ccc(Cl)cc4)CC3)c12` [Compound 8c, 4–(4-(4-Chlorophenyl)piperazin-1-yl)-1–(4-fluorophenyl)-3-methyl-1H-pyrazolo[3,4-d]pyrimidine], for which the inhibition at 10 µM was 0.02% with SNB-75; -8.37% with RPMI-8226; 3.1% with MCF7; 4.22% in the assay with MALME-3M; 1.21% in the assay on OVCAR-3; 8.23% in the assay with NCI-H522. Besides, the inhibition at 10 µM with MDA-MB-231/ATCC is 7.92%; in the assay on SK-OV-3, 12.6%; with M14 it was -0.94%; in the assay on SK-MEL-28, -3.74%; in the assay on OVCAR-8, 3.66%; in the assay on NCI-H226, 7.59%. Further, the inhibition at 10 µM in the assay on TK-10 was -30.9%; in the assay on MOLT-4, 7.19%; in the assay on A549/ATCC, -3.31%; in the assay with EKVX, 20.6%; in the assay with 786-0, -2.04%; in the assay on U251 it was -0.06%. In addition, the inhibition at 10 µM in the assay on SF-593 was 3.89%; in the assay with MDA-MB-435, -14.5%; in the assay with HS 578T, 3.74%.
Consider `Cc1nn(-c2ccc(F)cc2)c2ncnc(N)c12` [Compound 4, 1–(4-Fluorophenyl)-3-methyl-1H-pyrazolo[3,4-d]pyrimidin-4-amine], for which the inhibition at 10 µM was 8.18% with SNB-75; -17.5% in the assay with RPMI-8226; 9.82% in the assay on MCF7; 5.86% in the assay with MALME-3M; -2.81% in the assay on OVCAR-3; 6.49% in the assay with NCI-H522. Further, the inhibition at 10 µM in the assay on MDA-MB-231/ATCC is -10.8%; in the assay with SK-OV-3 it was -5.01%; in the assay on M14 it was -3.62%; in the assay on SK-MEL-28, -3.55%; with OVCAR-8 it was -4.64%; in the assay on NCI-H226 it was -7.4%. The inhibition at 10 µM in the assay on TK-10 is -4.14%; with MOLT-4, 0.58%; with A549/ATCC, -4.88%; in the assay on EKVX, 19.1%; in the assay on 786-0, 9.41%; with U251 it was -7.56%. The inhibition at 10 µM with SF-593 is -1.06%; in the assay with MDA-MB-435, -5.15%; in the assay with HS 578T, -4.94%.
Take `Cc1nn(-c2ccc(F)cc2)c2ncnc(NN)c12` [Compound 9, 1–(4-Fluorophenyl)-4-hydrazinyl-3-methyl-1H-pyrazolo[3,4-d]-pyrimidine]: the inhibition at 10 µM was -0.56% with SNB-75; -6.21% in the assay on RPMI-8226; 11.5% with MCF7; 19% in the assay on MALME-3M; 32.2% in the assay on OVCAR-3; 10.3% with NCI-H522. The inhibition at 10 µM in the assay with MDA-MB-231/ATCC is 23.1%; in the assay with SK-OV-3, 7.98%; in the assay on M14, -8%; in the assay with SK-MEL-28, 2.1%; in the assay on OVCAR-8 it was 1.29%; with NCI-H226, 15.5%. In addition, the inhibition at 10 µM with TK-10 is -51.2%; with MOLT-4, 22.7%; with A549/ATCC it was -5.98%; with EKVX, 17%; in the assay with 786-0, -3.72%; in the assay on U251, 9.85%. For the same molecule, the inhibition at 10 µM in the assay with SF-593 is -0.7%; in the assay on MDA-MB-435, -9.22%; with HS 578T it was -4.22%.
